Test results: patent publication US10524472B2, “Elicitor peptides having disrupted hypersensitive response box and use thereof” (Plant Health Care, Inc., priority 2014, dated 2020)
Marks after values point to notes of the source that are not given here.

System: tobacco mosaic virus (TMV)
Assay: Induction of resistance to tobacco mosaic virus in tobacco
Type: in vivo
Details: for TMV response / effectiveness against TMV infection (summary of Table 22): foliar spray; for Effectiveness Covered (%) (decline in TMV lesions vs UTC, systemic response) / Effectiveness Uncovered (%) (decline in TMV lesions vs UTC, local response): TMV 3 days post-treatment, scored 3 days after inoculation; for efficacy on covered leaves, systemic immune response: covered leaf

## QDPMQALMQLLEDLVKLDK (P14d-18D)
  TMV response / effectiveness against TMV infection (summary of Table 22): weaker TMV responses
Spray 20 ug/ml
  Effectiveness Covered (%) (decline in TMV lesions vs UTC, systemic response): 32%
  Effectiveness Uncovered (%) (decline in TMV lesions vs UTC, local response): 52%

## QDPMQALMQLLEDDVKLLK [P14d-14D]
Spray 20 ug/ml
  Effectiveness Covered (%) (decline in TMV lesions vs UTC, systemic response): 35%
  Effectiveness Uncovered (%) (decline in TMV lesions vs UTC, local response): 84* %

## SEEEEELAQLSAQLLKSLL (P18min-11S)
  TMV response / effectiveness against TMV infection (summary of Table 22): weaker TMV responses
Spray 20 ug/ml
  Effectiveness Covered (%) (decline in TMV lesions vs UTC, systemic response): −274%
  Effectiveness Uncovered (%) (decline in TMV lesions vs UTC, local response): −90%

## KPNDSQSNIAKLISALIMSLSQ (P15b-21S)
Spray 20 ug/ml
  Effectiveness Covered (%) (decline in TMV lesions vs UTC, systemic response): 97* %
  Effectiveness Uncovered (%) (decline in TMV lesions vs UTC, local response): 100* %

## SEEEEELQQLLKLFSEILQ (P3-10)
Spray 20 ug/ml
  Effectiveness Covered (%) (decline in TMV lesions vs UTC, systemic response): 95* %
  Effectiveness Uncovered (%) (decline in TMV lesions vs UTC, local response): 94* %

## SEEEEEALEQLLEDLVKLL (P14-31)
Spray 20 ug/ml
  Effectiveness Covered (%) (decline in TMV lesions vs UTC, systemic response): 87* %
  Effectiveness Uncovered (%) (decline in TMV lesions vs UTC, local response): 85* %

## QQPIDRQTIEQMAQLLAQLL (P18-8)
Spray 20 ug/ml
  Effectiveness Covered (%) (decline in TMV lesions vs UTC, systemic response): 78* %
  Effectiveness Uncovered (%) (decline in TMV lesions vs UTC, local response): 55%

## QDPMQASMQLLEDLVKLLK (P14d-7S)
  efficacy on covered leaves, systemic immune response: reduced efficacy on covered leaves
Spray 20 ug/ml
  Effectiveness Covered (%) (decline in TMV lesions vs UTC, systemic response): 23%
  Effectiveness Uncovered (%) (decline in TMV lesions vs UTC, local response): −112%

## QAGPQSANKTGNVDDANNQDPLQALAQLLEDLV (P14-22L,26A)
Spray 20 ug/ml
  Effectiveness Covered (%) (decline in TMV lesions vs UTC, systemic response): 83* %
  Effectiveness Uncovered (%) (decline in TMV lesions vs UTC, local response): 72* %

## SQGISEKQL_QLL_QLI_ALLQP (SQGISEKQLQLLQLIALLQP; P4-d10,14,18)
  TMV response / effectiveness against TMV infection (summary of Table 22): moderate reduction in effectiveness against TMV infection
Spray 10 ug/ml
  Effectiveness Covered (%) (decline in TMV lesions vs UTC, systemic response): 37%
  Effectiveness Uncovered (%) (decline in TMV lesions vs UTC, local response): 55%

## QDPMQALMQLLEDLVKDLK (P14d-17D)
Spray 20 ug/ml
  Effectiveness Covered (%) (decline in TMV lesions vs UTC, systemic response): 65* %
  Effectiveness Uncovered (%) (decline in TMV lesions vs UTC, local response): 68* %

## SQGISEKQLDQLLSQLIQALDQP (P4-14S-21D)
Spray 10 ug/ml
  Effectiveness Covered (%) (decline in TMV lesions vs UTC, systemic response): 48%
  Effectiveness Uncovered (%) (decline in TMV lesions vs UTC, local response): 49%

## SQGISEKQLDQLLSQAIQALLQP (P4-14S-16A)
  TMV response / effectiveness against TMV infection (summary of Table 22): weaker TMV responses
Spray 10 ug/ml
  Effectiveness Covered (%) (decline in TMV lesions vs UTC, systemic response): 3%
  Effectiveness Uncovered (%) (decline in TMV lesions vs UTC, local response): 1%

## SEEEEELTLTGVLQKLLKIL (P25-14)
  TMV response / effectiveness against TMV infection (summary of Table 22): weaker control of TMV infection
Spray 20 ug/ml
  Effectiveness Covered (%) (decline in TMV lesions vs UTC, systemic response): −87%
  Effectiveness Uncovered (%) (decline in TMV lesions vs UTC, local response): 52%

## SEEEEEEIAKLISALI (P15-63)
Spray 20 ug/ml
  Effectiveness Covered (%) (decline in TMV lesions vs UTC, systemic response): 74* %
  Effectiveness Uncovered (%) (decline in TMV lesions vs UTC, local response): 90* %

## SQGISEKQLDQLLSQLFQALLQP (P4-14S-17F)
Spray 10 ug/ml
  Effectiveness Covered (%) (decline in TMV lesions vs UTC, systemic response): 57%
  Effectiveness Uncovered (%) (decline in TMV lesions vs UTC, local response): 94%

## SEEEEELEQLLEDLV (P14-39)
Spray 20 ug/ml
  Effectiveness Covered (%) (decline in TMV lesions vs UTC, systemic response): 66* %
  Effectiveness Uncovered (%) (decline in TMV lesions vs UTC, local response): 72* %

## PSPFTQMLMHSVGEILQAQN (P6a-11S)
Spray 20 ug/ml
  Effectiveness Covered (%) (decline in TMV lesions vs UTC, systemic response): 88* %
  Effectiveness Uncovered (%) (decline in TMV lesions vs UTC, local response): 71* %

## SQGISEKQLDQLLSQLIAQALLQP (P4-i18A)
Spray 10 ug/ml
  Effectiveness Covered (%) (decline in TMV lesions vs UTC, systemic response): 50%
  Effectiveness Uncovered (%) (decline in TMV lesions vs UTC, local response): 81%

## SEEEEEDAQLLAQLLKSLL (P18min-7D)
  efficacy on covered leaves, systemic immune response: reduced efficacy on covered leaves
  TMV response / effectiveness against TMV infection (summary of Table 22): weaker TMV responses
Spray 20 ug/ml
  Effectiveness Covered (%) (decline in TMV lesions vs UTC, systemic response): 29%
  Effectiveness Uncovered (%) (decline in TMV lesions vs UTC, local response): 26%

## SEEEELDQLLTQLI (P1-31)
  TMV response / effectiveness against TMV infection (summary of Table 22): anti-TMV activity
Spray 20 ug/ml
  Effectiveness Covered (%) (decline in TMV lesions vs UTC, systemic response): 88* %
  Effectiveness Uncovered (%) (decline in TMV lesions vs UTC, local response): 95* %

## QDPMQALMQDLEDLVKLLK (P14d-10D)
Spray 20 ug/ml
  Effectiveness Covered (%) (decline in TMV lesions vs UTC, systemic response): 84* %
  Effectiveness Uncovered (%) (decline in TMV lesions vs UTC, local response): 84* %

## QAGPQSANKTGNVDDANNQDPLQALAQLAEDLV (P14-22L,26,29A)
Spray 10 ug/ml
  Effectiveness Covered (%) (decline in TMV lesions vs UTC, systemic response): 70* %
  Effectiveness Uncovered (%) (decline in TMV lesions vs UTC, local response): 85* %

## SEEEEELQKLLK_ILEALV (SEEEEELQKLLKILEALV; P25-9)
Spray 20 ug/ml
  Effectiveness Covered (%) (decline in TMV lesions vs UTC, systemic response): 87* %
  Effectiveness Uncovered (%) (decline in TMV lesions vs UTC, local response): 68%

## SQGISEKQLDQLLSQLIQAVLQP (P4-14S-20V)
  TMV response / effectiveness against TMV infection (summary of Table 22): weaker TMV responses
Spray 10 ug/ml
  Effectiveness Covered (%) (decline in TMV lesions vs UTC, systemic response): −29%
  Effectiveness Uncovered (%) (decline in TMV lesions vs UTC, local response): −26%

## SQGISEKQLDQLLSQL (P4-116)
  TMV response / effectiveness against TMV infection (summary of Table 22): reduced effectiveness against TMV infection
Spray 10 ug/ml
  Effectiveness Covered (%) (decline in TMV lesions vs UTC, systemic response): 0* %
  Effectiveness Uncovered (%) (decline in TMV lesions vs UTC, local response): 52%

## SEEEEELKALSKLIARLL (P19min-11S)
Spray 20 ug/ml
  Effectiveness Covered (%) (decline in TMV lesions vs UTC, systemic response): 45%
  Effectiveness Uncovered (%) (decline in TMV lesions vs UTC, local response): 71* %
